Data on 35 molecules can be found in US6603044B1, “Phthalamide derivatives, or salt thereof agrohorticultural insecticide, and method for using the same” (Nihon Nohyaku Co., Ltd., priority 1998, dated 2003).

What all share (assay type): in vivo
For data set [1], the system named is Diamond Back Moth (Plutella xylostella). Kind of data set: Insecticidal effect on diamond back moth (Test Example 1). As to conditions: 50 ppm; Chinese cabbage seedling with deposited eggs immersed about 30 seconds; 25° C.; six days after the immersion. The text has this: Insecticidal Effect on Diamond Back Moth (Plutella xylostella)
Adult diamondback moths were released and allowed to oviposit on a Chinese cabbage seedling. Two days after the release, the seedling having the eggs deposited thereon was immersed for about 30 seconds in a liquid chemical prepared by diluting a preparation containing each compound listed in Table 1, 2 or 3 as an active ingredient to adjust the concentration to 50 ppm. After air-dryness, it was allowed to stand in a room thermostatted at 25° C. Six days after the immersion, the hatched insects were counted. The mortality was calculated according to the following equation and the insecticidal effect was judged according to the criterion shown below. The test was carried out with triplicate groups of 10 insects.

Data set [2] concerns Common Cutworm (Spodoptera Litura). Kind of data set: Insecticidal effect on common cutworm (Test Example 2). As to conditions: 50 ppm; cabbage leaf immersed about 30 seconds; second-instar larvae; 25° C.; eight days after the inoculation. The text has this:
Insecticidal Effect on Common Cutworm (Spodoptera Litura)
A piece of cabbage leaf (cultivar; Shikidori) was immersed for about 30 seconds in a liquid chemical prepared by diluting a preparation containing each compound listed in Table 1, 2 or 3 as an active ingredient to adjust the concentration to 50 ppm. After air-dryness, it was placed in a plastic Petri dish with a diameter of 9 cm and inoculated with second-instar larvae of common cutworm, after which the dish was closed and then allowed to stand in a room thermostatted at 25° C. Eight days after the inoculation, the dead and alive were counted. The mortality was calculated according to the following equation and the insecticidal effect was judged according to the criterion shown in Test Example 1. The test was carried out with triplicate groups of 10 insects. [formula]

Data set [3] deals with Smaller tea Tortrix (Adoxophyes sp.). Kind of data set: Insecticidal effect on smaller tea tortrix (Test Example 3). As to conditions: 50 ppm; tea leaf immersed 30 seconds; larvae; 25° C., humidity 70%; eight days after the inoculation. On the procedure: Insecticidal Effect on Smaller tea Tortrix (Adoxophyes sp.)
A leaf of tea tree was immersed for 30 seconds in a liquid chemical containing each compound listed in Table 1, 2 or 3 as an active ingredient to adjust the concentration to 50 ppm. After air-dryness, the leaf was transferred to a plastic dish with a diameter of 9 cm and inoculated with larval smaller tea tortrix. Then, the leaf was allowed to stand in a room thermostatted at 25° C. at a humidity of 70%. Eight days after the inoculation, the dead and alive were counted, and the insecticidal effect was judged according to the same criterion as mentioned in Test Example 1. The test was carried out with triplicate groups of 10 insects.

Consider `CCN(CCSC)C(=O)c1c(F)cccc1C(=O)Nc1ccc(C(F)(C(F)(F)F)C(F)(F)F)cc1C` [2-5], for which, in data set [1], the “Test Example 1 insecticidal effect (mortality)” value is “A (100)”. In addition, the “Test Example 2 insecticidal effect (mortality)” value in data set [2] is listed as “C (89-80)”.
Taken in the same sequence, the figures for `CCN(CCCSC)C(=O)c1c(F)cccc1C(=O)Nc1ccc(C(F)(C(F)(F)F)C(F)(F)F)cc1C` [2-6] were “A (100)” and “D (79-50)”.
The matching figures for `CCN(CSC)C(=O)c1c(Cl)cccc1C(=O)Nc1ccc(C(F)(C(F)(F)F)C(F)(F)F)cc1C` [2-8]: “A (100)” and “A (100)”.
The matching figures for `CCN(CSC)C(=O)c1c(Cl)cccc1C(=O)Nc1ccc(OC(F)(F)C(F)(F)F)cc1C` [2-17]: “A (100)” and “A (100)”.
Turning to `CCS(=O)(=O)CCCCC(C)NC(=O)c1c(I)cccc1C(=O)Nc1ccc(C(F)(F)C(F)(F)F)cc1C` (stereo not shown) [compound 179], in data set [1], the “Test Example 1 insecticidal effect (mortality)” value was “A (100)”. The “Test Example 3 insecticidal effect (mortality)” value in data set [3] was “A (100)”.
For `CCS(=O)(=O)CCCCC(C)NC(=O)c1c(I)cccc1C(=O)Nc1ccc(C(F)(C(F)(F)F)C(F)(F)F)cc1C` (stereo not shown) [compound 180], in data set [1], the “Test Example 1 insecticidal effect (mortality)” value was “A (100)”. Also, the “Test Example 3 insecticidal effect (mortality)” value in data set [3] is given as “A (100)”.
Take `CSCCSCC(C)NC(=O)c1c(I)cccc1C(=O)Nc1ccc(OC(F)(F)F)cc1C` (stereo not shown) [compound 190]: in data set [1], the “Test Example 1 insecticidal effect (mortality)” value is “A (100)”. The “Test Example 3 insecticidal effect (mortality)” value in data set [3] is “A (100)”.
Consider `CC[S+]([O-])CCCC(C)NC(=O)c1c(I)cccc1C(=O)Nc1ccc(C(F)(C(F)(F)F)C(F)(F)F)cc1C` (stereo not shown) [compound 202], for which the “Test Example 1 insecticidal effect (mortality)” value in data set [1] is listed as “A (100)”. Also, in data set [3], the “Test Example 3 insecticidal effect (mortality)” value is given as “A (100)”.
Consider `CCS(=O)(=O)CCCC(C)NC(=O)c1c(Br)cccc1C(=O)Nc1ccc(C(F)(C(F)(F)F)C(F)(F)F)cc1C` (stereo not shown) [compound 215], for which the “Test Example 1 insecticidal effect (mortality)” value in data set [1] is on record as “A (100)”. Moreover, the “Test Example 3 insecticidal effect (mortality)” value in data set [3] was “A (100)”.
`CSCC(C)NC(=O)c1c(C(=O)Nc2ccc(Oc3ncc(C(F)(F)F)cc3Cl)cc2C)cccc1[N+](=O)[O-]` (stereo not shown) [compound 224]: in data set [1], the “Test Example 1 insecticidal effect (mortality)” value is reported as “A (100)”. In data set [3], the “Test Example 3 insecticidal effect (mortality)” value is listed as “A (100)”.
For the molecule `CSCC(C)(C)NC(=O)c1c(C(=O)Nc2ccc(OC(F)(F)F)cc2C)ccc2c1OCO2` [compound 252], the “Test Example 1 insecticidal effect (mortality)” value in data set [1] is on record as “A (100)”. In addition, the “Test Example 3 insecticidal effect (mortality)” value in data set [3] was “A (100)”.
`CSC1CCCCC1NC(=O)c1c(I)cccc1C(=O)Nc1ccc(C(F)(C(F)(F)F)C(F)(F)F)cc1C` (stereo not shown) [compound 273]: the “Test Example 1 insecticidal effect (mortality)” value in data set [1] was “A (100)”. Moreover, the “Test Example 3 insecticidal effect (mortality)” value in data set [3] is given as “C (89-80)”.
Taken in the same sequence, the figures for `Cc1cc(OC(F)(F)F)ccc1NC(=O)c1ccc2c(c1C(=O)NC(C)(C)CS(C)(=O)=O)OC(F)(F)O2` [compound 293] were “A (100)” and “A (100)”.
The matching figures for `CSCNC(=O)c1ccccc1C(=O)Nc1ccc(C(F)(C(F)(F)F)C(F)(F)F)cc1C` [compound 298]: “A (100)” and “A (100)”.
Taken in the same sequence, the figures for `Cc1cc(C(F)(C(F)(F)F)C(F)(F)F)ccc1NC(=O)c1cccc(I)c1C(=O)NC(C)CSC(=S)N(C)C` (stereo not shown) [compound 302] were “A (100)” and “A (100)”.
Regarding `Cc1cc(C(F)(C(F)(F)F)C(F)(F)F)ccc1NC(=O)c1cccc(I)c1C(=O)NC(C)CSc1nc2ccccc2s1` (stereo not shown) [compound 319], the “Test Example 1 insecticidal effect (mortality)” value in data set [1] is on record as “A (100)”. Further, in data set [3], the “Test Example 3 insecticidal effect (mortality)” value was “A (100)”.
`CSCC(C)(C)NC(=O)c1c(C(=O)Nc2ccc(Cl)cc2Cl)cccc1[N+](=O)[O-]` [compound 326]: in data set [1], the “Test Example 1 insecticidal effect (mortality)” value was “A (100)”. The “Test Example 3 insecticidal effect (mortality)” value in data set [3] is “A (100)”.
For `Cc1cc(C(F)(C(F)(F)F)C(F)(F)F)ccc1NC(=O)c1cccc([N+](=O)[O-])c1C(=O)NC(C)(C)C[S+](C)[O-]` (stereo not shown) [compound 327], in data set [1], the “Test Example 1 insecticidal effect (mortality)” value is recorded as “A (100)”. Besides, the “Test Example 3 insecticidal effect (mortality)” value in data set [3] was “A (100)”.
As for `CSC1CCCC1NC(=O)c1c(I)cccc1C(=O)Nc1ccc(C(F)(C(F)(F)F)C(F)(F)F)cc1C` (stereo not shown) [compound 329], in data set [1], the “Test Example 1 insecticidal effect (mortality)” value is listed as “A (100)”. Moreover, in data set [3], the “Test Example 3 insecticidal effect (mortality)” value is reported as “A (100)”.
In the case of `CSCC(C)NC(=O)c1cc2ccccc2cc1C(=O)Nc1ccc(C(F)(C(F)(F)F)C(F)(F)F)cc1C` (stereo not shown) [compound 332], the “Test Example 1 insecticidal effect (mortality)” value in data set [1] is “A (100)”. In data set [3], the “Test Example 3 insecticidal effect (mortality)” value is given as “A (100)”.
With `Cc1cc(C(F)(C(F)(F)F)C(F)(F)F)ccc1NC(=O)c1ccc2ccccc2c1C(=O)NC(C)C[S+](C)[O-]` (stereo not shown) [compound 334], the “Test Example 1 insecticidal effect (mortality)” value in data set [1] is “A (100)”. Besides, the “Test Example 3 insecticidal effect (mortality)” value in data set [3] was “A (100)”.
As to `Cc1cc(C(F)(C(F)(F)F)C(F)(F)F)ccc1NC(=O)c1ccc2ccccc2c1C(=O)NC(C)CS(C)(=O)=O` (stereo not shown) [compound 335], the “Test Example 1 insecticidal effect (mortality)” value in data set [1] is “A (100)”. In data set [3], the “Test Example 3 insecticidal effect (mortality)” value is reported as “D (79-50)”.
Taken in the same sequence, the figures for `Cc1cc(C(F)(C(F)(F)F)C(F)(F)F)ccc1NC(=O)c1cccc(I)c1C(=O)NC(C)C[S+]([O-])c1nc2ccccc2s1` (stereo not shown) [compound 344] were “A (100)” and “A (100)”.
Taken in the same sequence, the figures for `Cc1cc(C(F)(C(F)(F)F)C(F)(F)F)ccc1NC(=O)c1cccc(I)c1C(=O)NC(C)CSc1nccs1` (stereo not shown) [compound 352] were “A (100)” and “A (100)”.
Taken in the same sequence, the figures for `Cc1nnc(SCC(C)NC(=O)c2c(I)cccc2C(=O)Nc2ccc(C(F)(C(F)(F)F)C(F)(F)F)cc2C)s1` (stereo not shown) [compound 353] were “A (100)” and “A (100)”.
Consider `CSCC(C)NC(=O)c1c(I)cccc1C(=O)Nc1ccc([Si](C)(C)C)cc1C` (stereo not shown) [compound 368], for which the “Test Example 1 insecticidal effect (mortality)” value in data set [1] is “A (100)”. Besides, the “Test Example 3 insecticidal effect (mortality)” value in data set [3] is reported as “A (100)”.
`CSCC1(NC(=O)c2c(I)cccc2C(=O)Nc2ccc(C(F)(C(F)(F)F)C(F)(F)F)cc2C)CCCC1` [compound 445]: in data set [1], the “Test Example 1 insecticidal effect (mortality)” value is “A (100)”. For the same molecule, the “Test Example 3 insecticidal effect (mortality)” value in data set [3] is “A (100)”.
With `Cc1cc(C(F)(C(F)(F)F)C(F)(F)F)ccc1NC(=O)c1cccc(I)c1C(=O)NC(C)(C)CSCc1ccc(Cl)cc1` [compound 451], in data set [1], the “Test Example 1 insecticidal effect (mortality)” value is given as “A (100)”. Further, the “Test Example 3 insecticidal effect (mortality)” value in data set [3] is “A (100)”.
For `Cc1cc(C(F)(C(F)(F)F)C(F)(F)F)ccc1NC(=O)c1cccc(I)c1C(=O)NC(C)CSC(=O)N(C)C` (stereo not shown) [compound 461], the “Test Example 1 insecticidal effect (mortality)” value in data set [1] was “A (100)”. Besides, the “Test Example 3 insecticidal effect (mortality)” value in data set [3] is reported as “D (79-50)”.
Taken in the same sequence, the figures for `CSCC(C)(C)NC(=O)c1c(I)cccc1C(=O)Nc1ccc(Cc2ccc(Cl)cc2)cc1C` [compound 471] were “A (100)” and “A (100)”.
The matching figures for `CSCC(C)(C)NC(=O)c1c(I)cccc1C(=O)Nc1ccc(C(O)c2ccc(Cl)cc2)cc1C` (stereo not shown) [compound 472]: “A (100)” and “A (100)”.
Taken in the same sequence, the figures for `CSCC(C)(C)NC(=O)c1c(I)cccc1C(=O)Nc1ccc(Oc2ccc(Cl)cc2)cc1C` [compound 473] were “A (100)” and “B (99-90)”.
For the molecule `CSCC(C)(C)NC(=O)c1c(I)cccc1C(=O)Nc1ccc(Oc2cccc(Cl)c2)cc1C` [compound 474], the “Test Example 1 insecticidal effect (mortality)” value in data set [1] is given as “A (100)”. The “Test Example 3 insecticidal effect (mortality)” value in data set [3] is “D (79-50)”.
Take `CSCC(C)(C)NC(=O)c1c(I)cccc1C(=O)Nc1ccc(Oc2cccc(C#N)c2)cc1C` [compound 475]: in data set [1], the “Test Example 1 insecticidal effect (mortality)” value was “A (100)”. Besides, in data set [3], the “Test Example 3 insecticidal effect (mortality)” value was “A (100)”.
On to `CSCC(C)(C)NC(=O)c1c(I)cccc1C(=O)Nc1ccc(C(=O)N(C)c2ccc(Cl)cc2)cc1C` [compound 480], for which the “Test Example 1 insecticidal effect (mortality)” value in data set [1] is given as “A (100)”. Further, the “Test Example 3 insecticidal effect (mortality)” value in data set [3] was “A (100)”.
